ChEMBL document CHEMBL3991601, “The target landscape of clinical kinase drugs” (Science, 2017)
The source made the active and inactive calls. For most assays here, no stated cut-off is given here; in the data, actives have a measured Kd and inactives only a lower limit.

Columns and labels:
[1] = biological target: T1, Serine/threonine-protein kinase ICK (Homo sapiens, UniProt Q9UPZ9)
T1 sequence (Q9UPZ9 whole entry): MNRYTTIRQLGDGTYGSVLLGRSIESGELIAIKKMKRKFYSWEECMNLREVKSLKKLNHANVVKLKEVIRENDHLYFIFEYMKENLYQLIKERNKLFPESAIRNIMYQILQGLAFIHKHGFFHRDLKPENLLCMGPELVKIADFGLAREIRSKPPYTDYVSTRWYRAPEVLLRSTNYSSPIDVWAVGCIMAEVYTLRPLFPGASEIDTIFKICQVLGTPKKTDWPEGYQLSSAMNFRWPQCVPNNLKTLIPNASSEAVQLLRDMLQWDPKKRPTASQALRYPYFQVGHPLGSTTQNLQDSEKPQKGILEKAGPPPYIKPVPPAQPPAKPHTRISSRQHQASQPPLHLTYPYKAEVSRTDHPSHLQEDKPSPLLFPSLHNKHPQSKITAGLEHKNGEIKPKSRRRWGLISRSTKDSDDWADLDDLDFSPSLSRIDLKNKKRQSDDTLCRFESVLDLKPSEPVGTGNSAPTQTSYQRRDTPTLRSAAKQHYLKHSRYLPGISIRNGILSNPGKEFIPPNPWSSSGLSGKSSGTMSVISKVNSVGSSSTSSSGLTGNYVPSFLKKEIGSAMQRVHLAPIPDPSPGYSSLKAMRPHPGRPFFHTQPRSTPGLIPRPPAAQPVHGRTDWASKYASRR

[2] = biological target: Serine/threonine-protein kinase 16 (Homo sapiens, UniProt O75716)
Chain of Serine/threonine-protein kinase 16 (O75716 whole entry): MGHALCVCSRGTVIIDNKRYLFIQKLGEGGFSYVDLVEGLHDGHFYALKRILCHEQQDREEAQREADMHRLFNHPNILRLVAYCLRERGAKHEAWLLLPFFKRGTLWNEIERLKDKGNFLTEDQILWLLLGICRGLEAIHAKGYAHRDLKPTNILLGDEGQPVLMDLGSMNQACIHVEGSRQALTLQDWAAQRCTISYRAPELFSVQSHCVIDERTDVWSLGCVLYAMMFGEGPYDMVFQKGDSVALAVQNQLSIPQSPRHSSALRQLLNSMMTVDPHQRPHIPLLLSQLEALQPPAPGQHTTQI

[3] = biological target: Tyrosine-protein kinase Lyn (Homo sapiens, UniProt P07948)
Chain of Tyrosine-protein kinase Lyn (P07948 whole entry): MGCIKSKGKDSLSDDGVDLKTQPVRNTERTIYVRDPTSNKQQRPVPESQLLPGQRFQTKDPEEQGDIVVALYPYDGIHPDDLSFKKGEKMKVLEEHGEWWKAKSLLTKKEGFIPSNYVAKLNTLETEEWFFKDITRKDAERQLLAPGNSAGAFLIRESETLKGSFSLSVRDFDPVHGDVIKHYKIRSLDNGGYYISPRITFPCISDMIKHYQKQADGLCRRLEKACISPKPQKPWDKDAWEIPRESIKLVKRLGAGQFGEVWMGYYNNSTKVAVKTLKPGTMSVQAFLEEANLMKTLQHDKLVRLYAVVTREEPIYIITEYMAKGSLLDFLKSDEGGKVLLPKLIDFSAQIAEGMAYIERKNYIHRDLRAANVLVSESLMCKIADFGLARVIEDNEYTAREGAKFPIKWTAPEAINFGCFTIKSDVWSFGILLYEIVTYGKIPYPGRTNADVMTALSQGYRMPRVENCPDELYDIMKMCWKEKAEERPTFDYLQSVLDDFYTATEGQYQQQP

[4] = biological target: T2, Breakpoint cluster region protein (Homo sapiens, UniProt P11274)
T2 sequence (P11274 whole entry): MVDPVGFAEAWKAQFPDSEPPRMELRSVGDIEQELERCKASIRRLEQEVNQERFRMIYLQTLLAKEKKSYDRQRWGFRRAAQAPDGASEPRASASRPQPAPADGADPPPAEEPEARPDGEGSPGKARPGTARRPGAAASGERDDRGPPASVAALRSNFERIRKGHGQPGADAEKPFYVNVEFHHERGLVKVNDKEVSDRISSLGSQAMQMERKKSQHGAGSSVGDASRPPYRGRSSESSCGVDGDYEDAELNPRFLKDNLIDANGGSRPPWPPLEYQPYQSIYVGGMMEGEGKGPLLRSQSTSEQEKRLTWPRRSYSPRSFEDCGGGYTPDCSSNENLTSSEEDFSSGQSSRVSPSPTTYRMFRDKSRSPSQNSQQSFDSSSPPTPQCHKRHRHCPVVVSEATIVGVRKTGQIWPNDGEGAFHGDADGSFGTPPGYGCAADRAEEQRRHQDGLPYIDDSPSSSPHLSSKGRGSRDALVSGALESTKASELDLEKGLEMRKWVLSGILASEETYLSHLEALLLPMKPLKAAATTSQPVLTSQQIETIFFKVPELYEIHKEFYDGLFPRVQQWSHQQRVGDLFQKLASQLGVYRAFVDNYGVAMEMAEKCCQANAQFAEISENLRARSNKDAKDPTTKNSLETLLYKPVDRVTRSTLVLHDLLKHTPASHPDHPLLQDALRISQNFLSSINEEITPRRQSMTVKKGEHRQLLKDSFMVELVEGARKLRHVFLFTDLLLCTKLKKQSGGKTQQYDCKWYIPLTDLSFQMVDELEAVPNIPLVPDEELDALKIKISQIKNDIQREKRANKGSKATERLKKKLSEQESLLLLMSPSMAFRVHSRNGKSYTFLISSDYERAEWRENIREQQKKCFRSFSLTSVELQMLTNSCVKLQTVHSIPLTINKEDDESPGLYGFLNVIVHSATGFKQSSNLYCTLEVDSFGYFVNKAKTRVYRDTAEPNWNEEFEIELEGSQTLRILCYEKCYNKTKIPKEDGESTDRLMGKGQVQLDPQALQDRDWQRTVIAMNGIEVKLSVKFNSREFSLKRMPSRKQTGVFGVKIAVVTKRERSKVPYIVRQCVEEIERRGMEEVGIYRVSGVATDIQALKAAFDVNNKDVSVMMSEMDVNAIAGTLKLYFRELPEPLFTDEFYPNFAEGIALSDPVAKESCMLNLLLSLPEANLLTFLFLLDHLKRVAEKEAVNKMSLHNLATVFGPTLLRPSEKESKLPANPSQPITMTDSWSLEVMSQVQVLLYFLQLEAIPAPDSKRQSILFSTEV

[5] = biological target: Ras-related protein Rab-6A (Homo sapiens, UniProt P20340)
Chain of Ras-related protein Rab-6A (P20340 whole entry): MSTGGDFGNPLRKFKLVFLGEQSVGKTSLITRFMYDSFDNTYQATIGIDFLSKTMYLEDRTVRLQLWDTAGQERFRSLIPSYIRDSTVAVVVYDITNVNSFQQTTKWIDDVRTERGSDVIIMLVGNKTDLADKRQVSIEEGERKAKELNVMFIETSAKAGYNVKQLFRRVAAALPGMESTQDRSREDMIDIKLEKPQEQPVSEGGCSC

[6] = biological target: T3, Cysteine--tRNA ligase, cytoplasmic (Homo sapiens, UniProt P49589)
T3 sequence (P49589 whole entry): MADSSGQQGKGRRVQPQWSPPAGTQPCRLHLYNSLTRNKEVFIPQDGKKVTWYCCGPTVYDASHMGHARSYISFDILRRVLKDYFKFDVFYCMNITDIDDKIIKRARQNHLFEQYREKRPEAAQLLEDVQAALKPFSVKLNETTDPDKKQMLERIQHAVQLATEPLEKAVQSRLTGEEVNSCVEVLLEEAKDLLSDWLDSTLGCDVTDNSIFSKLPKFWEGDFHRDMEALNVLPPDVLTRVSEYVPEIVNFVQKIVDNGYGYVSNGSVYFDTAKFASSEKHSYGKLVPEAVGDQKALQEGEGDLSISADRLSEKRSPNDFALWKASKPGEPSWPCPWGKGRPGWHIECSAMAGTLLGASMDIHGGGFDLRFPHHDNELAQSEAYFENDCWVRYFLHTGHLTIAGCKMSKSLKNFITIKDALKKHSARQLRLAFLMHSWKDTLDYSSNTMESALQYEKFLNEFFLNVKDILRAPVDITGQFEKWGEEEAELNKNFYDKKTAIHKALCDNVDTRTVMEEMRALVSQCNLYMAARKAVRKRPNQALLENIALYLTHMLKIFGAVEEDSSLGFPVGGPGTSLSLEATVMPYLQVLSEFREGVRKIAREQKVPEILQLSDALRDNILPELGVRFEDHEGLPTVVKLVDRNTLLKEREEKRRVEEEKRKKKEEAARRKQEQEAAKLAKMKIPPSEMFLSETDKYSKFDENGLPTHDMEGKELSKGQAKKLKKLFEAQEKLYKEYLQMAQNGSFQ

[7] = biological target: STE20-like serine/threonine-protein kinase (Homo sapiens, UniProt Q9H2G2)
Chain of STE20-like serine/threonine-protein kinase (Q9H2G2 whole entry): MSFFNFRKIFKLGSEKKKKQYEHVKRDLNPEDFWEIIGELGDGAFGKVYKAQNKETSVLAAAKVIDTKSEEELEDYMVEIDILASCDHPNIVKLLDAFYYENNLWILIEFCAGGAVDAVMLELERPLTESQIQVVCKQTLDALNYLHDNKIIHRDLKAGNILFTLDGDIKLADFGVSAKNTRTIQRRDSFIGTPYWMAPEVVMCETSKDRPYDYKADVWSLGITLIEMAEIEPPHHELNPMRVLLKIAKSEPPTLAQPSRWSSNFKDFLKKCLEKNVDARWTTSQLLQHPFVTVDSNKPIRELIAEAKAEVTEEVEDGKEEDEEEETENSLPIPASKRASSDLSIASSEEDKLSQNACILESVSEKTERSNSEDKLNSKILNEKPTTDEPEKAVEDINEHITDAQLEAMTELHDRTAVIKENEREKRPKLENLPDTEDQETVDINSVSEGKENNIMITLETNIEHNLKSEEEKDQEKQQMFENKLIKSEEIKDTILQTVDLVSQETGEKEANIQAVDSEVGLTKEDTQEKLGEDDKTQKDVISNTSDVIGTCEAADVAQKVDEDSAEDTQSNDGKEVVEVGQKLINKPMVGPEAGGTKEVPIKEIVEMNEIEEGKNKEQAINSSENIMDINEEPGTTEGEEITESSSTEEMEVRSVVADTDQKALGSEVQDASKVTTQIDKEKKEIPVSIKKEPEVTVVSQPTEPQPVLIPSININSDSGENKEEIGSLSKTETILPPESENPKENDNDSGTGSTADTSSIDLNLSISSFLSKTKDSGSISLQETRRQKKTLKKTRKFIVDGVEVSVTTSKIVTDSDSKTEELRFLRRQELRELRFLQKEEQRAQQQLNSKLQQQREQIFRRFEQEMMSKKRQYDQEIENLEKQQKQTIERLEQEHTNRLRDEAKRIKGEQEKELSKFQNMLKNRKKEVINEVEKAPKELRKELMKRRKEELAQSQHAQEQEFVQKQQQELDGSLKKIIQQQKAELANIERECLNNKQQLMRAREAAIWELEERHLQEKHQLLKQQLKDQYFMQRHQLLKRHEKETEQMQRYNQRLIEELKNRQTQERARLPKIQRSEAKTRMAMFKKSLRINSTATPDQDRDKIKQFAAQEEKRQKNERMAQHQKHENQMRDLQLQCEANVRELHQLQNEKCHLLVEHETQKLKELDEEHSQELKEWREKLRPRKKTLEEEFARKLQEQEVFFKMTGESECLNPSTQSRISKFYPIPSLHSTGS

[8] = biological target: Ribosomal protein S6 kinase alpha-3 (Homo sapiens, UniProt P51812)
Chain of Ribosomal protein S6 kinase alpha-3 (P51812 whole entry): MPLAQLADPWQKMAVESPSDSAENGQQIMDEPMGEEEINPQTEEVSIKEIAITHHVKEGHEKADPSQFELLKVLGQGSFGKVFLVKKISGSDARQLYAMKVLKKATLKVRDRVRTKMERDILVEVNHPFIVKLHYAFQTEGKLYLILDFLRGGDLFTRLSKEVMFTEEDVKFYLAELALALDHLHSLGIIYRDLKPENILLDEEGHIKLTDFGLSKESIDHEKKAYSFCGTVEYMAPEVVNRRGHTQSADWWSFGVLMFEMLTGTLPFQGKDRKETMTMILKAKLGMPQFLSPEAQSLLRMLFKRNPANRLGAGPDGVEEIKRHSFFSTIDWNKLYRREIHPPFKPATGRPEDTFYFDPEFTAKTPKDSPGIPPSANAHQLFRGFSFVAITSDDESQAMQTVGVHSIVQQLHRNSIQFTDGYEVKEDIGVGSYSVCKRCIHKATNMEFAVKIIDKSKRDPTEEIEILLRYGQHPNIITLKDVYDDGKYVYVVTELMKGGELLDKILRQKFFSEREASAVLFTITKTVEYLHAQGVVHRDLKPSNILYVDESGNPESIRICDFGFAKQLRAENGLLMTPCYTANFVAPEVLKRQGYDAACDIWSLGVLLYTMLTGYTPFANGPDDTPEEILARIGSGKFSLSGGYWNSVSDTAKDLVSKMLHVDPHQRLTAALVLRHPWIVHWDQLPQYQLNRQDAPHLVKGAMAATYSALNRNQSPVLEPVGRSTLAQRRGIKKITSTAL

Row | Kd [1] | Kd [2] | Kd [3] | Kd [4] | Kd [5] | Kd [6] | Kd [7] | Kd [8] | SMILES
1 | > 30 µM (inactive) | > 30 µM (inactive) | 2.76 µM (active) | > 30 µM (inactive) | > 30 µM (inactive) | > 30 µM (inactive) | > 30 µM (inactive) | > 30 µM (inactive) | CNC(=O)c1cccc2cc(Oc3ccnc4cc(OCC5(N)CC5)c(OC)cc34)ccc12 [LUCITANIB]
2 | 0.863 µM (active) | 1.1 µM (active) | 3.54 µM (active) | 0.685 µM (active) | > 30 µM (inactive) | > 30 µM (inactive) | > 30 µM (inactive) | > 30 µM (inactive) | CNC(=O)c1nn(C)c2c1C(C)(C)Cc1cnc(Nc3ccc(N4CCN(C)CC4)cc3)nc1-2 [MILCICLIB]
3 | > 30 µM (inactive) | > 30 µM (inactive) | > 30 µM (inactive) | > 30 µM (inactive) | > 30 µM (inactive) | > 30 µM (inactive) | > 30 µM (inactive) | > 30 µM (inactive) | Cn1cc(-c2cnc3ccc4ccc(CS(=O)(=O)NCc5ccccn5)cc4c(=O)c3c2)cn1 [MK-8033]
4 | > 30 µM (inactive) | > 30 µM (inactive) | > 30 µM (inactive) | > 30 µM (inactive) | > 30 µM (inactive) | > 30 µM (inactive) | > 30 µM (inactive) | > 30 µM (inactive) | FC(F)(F)c1ccc(/C=C/c2nc(COc3ccc(CCCCn4ccnn4)cc3)co2)cc1 [MUBRITINIB]
5 | 0.237 µM | 5.45 µM (active) | > 30 µM (inactive) | 1.28 µM (active) | > 30 µM (inactive) | > 30 µM (inactive) | > 30 µM (inactive) | 0.1 µM (active) | Cc1nc(Nc2n[nH]c3c2CN(C(=O)N[C@H](CN(C)C)c2ccccc2)C3(C)C)c2sccc2n1 [PF-03758309]
6 | > 30 µM (inactive) | > 30 µM (inactive) | > 30 µM (inactive) | > 30 µM (inactive) | > 30 µM (inactive) | > 30 µM (inactive) | > 30 µM (inactive) | > 30 µM (inactive) | Cc1cnc(NC(=O)Nc2cc(Br)c(C)cc2OC[C@@H]2CNCCO2)cn1 [RABUSERTIB]
7 | > 30 µM (inactive) | > 30 µM (inactive) | > 30 µM (inactive) | > 30 µM (inactive) | > 30 µM (inactive) | > 30 µM (inactive) | > 30 µM (inactive) | > 30 µM (inactive) | N#CC1(c2ccc(NC(=O)c3cccnc3NCc3ccncc3)cc2)CCCC1 [RIVOCERANIB]
8 | > 30 µM (inactive) | > 30 µM (inactive) | > 30 µM (inactive) | > 30 µM (inactive) | > 30 µM (inactive) | > 30 µM (inactive) | > 30 µM (inactive) | > 30 µM (inactive) | O=c1[nH]ccc2cc(OC3CCNCC3)ccc12 [SAR-407899 FREE BASE]
9 | > 30 µM (inactive) | > 30 µM (inactive) | > 30 µM (inactive) | > 30 µM (inactive) | > 30 µM (inactive) | > 30 µM (inactive) | > 30 µM (inactive) | > 30 µM (inactive) | CO[C@H]1C[C@@H]2CC[C@@H](C)[C@@](O)(O2)C(=O)C(=O)N2CCCC[C@H]2C(=O)O[C@H]([C@H](C)C[C@@H]2CC[C@@H](O)[C@H](OC)C2)CC(=O)[C@H](C)/C=C(\C)[C@@H](O)[C@@H](OC)C(=O)[C@H](C)C[C@H](C)/C=C/C=C/C=C/1C [SIROLIMUS]
10 | > 30 µM (inactive) | > 30 µM (inactive) | > 30 µM (inactive) | > 30 µM (inactive) | > 30 µM (inactive) | > 30 µM (inactive) | > 30 µM (inactive) | > 30 µM (inactive) | CO[C@H]1C[C@@H]2CC[C@@H](C)[C@@](O)(O2)C(=O)C(=O)N2CCCC[C@H]2C(=O)O[C@H]([C@H](C)C[C@@H]2CC[C@@H](OC(=O)C(C)(CO)CO)[C@H](OC)C2)CC(=O)[C@H](C)/C=C(\C)[C@@H](O)[C@@H](OC)C(=O)[C@H](C)C[C@H](C)/C=C/C=C/C=C/1C [TEMSIROLIMUS]
11 | > 30 µM (inactive) | > 30 µM (inactive) | 1.13 µM (active) | 0.113 µM (active) | > 30 µM (inactive) | > 30 µM (inactive) | 3.42 µM (active) | > 30 µM (inactive) | COc1cc2c(Nc3ccc(Cl)c(Cl)c3F)ncnc2cc1OC[C@@H]1C[C@@H]2CN(C)C[C@@H]2C1 [TESEVATINIB]
12 | > 30 µM (inactive) | > 30 µM (inactive) | > 30 µM (inactive) | > 30 µM (inactive) | > 30 µM (inactive) | > 30 µM (inactive) | > 30 µM (inactive) | > 30 µM (inactive) | O=C(Cc1ccc(-c2ccc(OCCN3CCOCC3)cc2)cn1)NCc1ccccc1 [TIRBANIBULIN]
13 | > 30 µM (inactive) | > 30 µM (inactive) | > 30 µM (inactive) | > 30 µM (inactive) | > 30 µM (inactive) | > 30 µM (inactive) | > 30 µM (inactive) | > 30 µM (inactive) | O=C1NC(=O)[C@@H](c2cn3c4c(cccc24)CCC3)[C@@H]1c1c[nH]c2ccccc12 [TIVANTINIB]

Row | SMILES | Kd [1] | Kd [2] | Kd [3] | Kd [4] | Kd [5] | Kd [6] | Kd [7] | Kd [8]
14 | CCOc1cc2ncc(C#N)c(Nc3ccc(F)c(Cl)c3)c2cc1NC(=O)/C=C/CN(C)C [PELITINIB] | > 30 µM (inactive) | > 30 µM (inactive) | > 30 µM (inactive) | 1.19 µM (active) | > 30 µM (inactive) | > 30 µM (inactive) | > 30 µM (inactive) | > 30 µM (inactive)
15 | CCCCCCCCCCCCCCCCCCOP(=O)([O-])OC1CC[N+](C)(C)CC1 [PERIFOSINE] | > 30 µM (inactive) | > 30 µM (inactive) | > 30 µM (inactive) | > 30 µM (inactive) | > 30 µM (inactive) | > 30 µM (inactive) | > 30 µM (inactive) | > 30 µM (inactive)
